US20190365675A1, “COMPOSITIONS FOR THE PREVENTION AND/OR TREATMENT OF ALCOHOL USE DISORDERS” (SERVICIO ANDALUZ DE SALUD, priority 2016, published 2019)

Key:
[1] = system: HMGB1; assay: HMGB1 levels (ELISA) and nuclear/cytoplasmic ratio (Western blot) in frontal cortex after ethanol intoxication; format: in vivo, Wistar rats
Protocol: The animals were treated with intragastric (i.g.) ethanol 3 times a day using an i.g. cannula (16G needle, Fisher Scientific, Waltham, Mass., USA), following a protocol based on a slightly modified standard 4-day alcohol intoxication pattern (Bernier et al., 2002a, b) (FIG. 1A). The ethanol doses were administered every 8 h for a total time of 4 days. The rats treated with ethanol received an initial loading dose of 5 g/kg of ethanol in a 30% solution (w/v) and then a maximum maintenance dose of 3 g/kg, which were determined based on blood ethanol levels (BEL). This repeated standard alcohol intoxication paradigm kept BEL intoxication relatively constant in a range of sedation/ataxia (190 to 430 mg/dl, Table 3), according to the 6-point alcohol intoxication behavior scale (Majchrowicz, 1975). […] The autoradiograph was quantified by densitometry (NIH ImageJ® software, National Biosciences, Lincoln, Nebr. USA) and expressed as optical density (OD). […] The levels of soluble HMGB1, TNF-α, IL-1β and MCP-1 were determined by means of a commercially available enzyme-linked immunosorbent assay kit (ELISA) (Elabscience Biotechnology Co., Ltd., China, for HMGB-1; RayBiotech®, GA, USA, for TNF-α, IL-1β, and MCP-1). The nuclear/cytosol HMGB1 fraction was determined by means of Western blot analysis.

[2] = system: LPS; assay: Plasma LPS levels (intestinal permeability to endotoxins); format: in vivo, Wistar rats; details: animals pretreated with OEA and receiving ethanol; ethanol alone about 80%; does not differ from control or ethanol group
Protocol: The animals were treated with intragastric (i.g.) ethanol 3 times a day using an i.g. cannula (16G needle, Fisher Scientific, Waltham, Mass., USA), following a protocol based on a slightly modified standard 4-day alcohol intoxication pattern (Bernier et al., 2002a, b) (FIG. 1A). The ethanol doses were administered every 8 h for a total time of 4 days. The rats treated with ethanol received an initial loading dose of 5 g/kg of ethanol in a 30% solution (w/v) and then a maximum maintenance dose of 3 g/kg, which were determined based on blood ethanol levels (BEL). This repeated standard alcohol intoxication paradigm kept BEL intoxication relatively constant in a range of sedation/ataxia (190 to 430 mg/dl, Table 3), according to the 6-point alcohol intoxication behavior scale (Majchrowicz, 1975). The mean dose of ethanol/rat/day (days 1-4) was 7.06 g/kg, similar to other studies (Obernier et al., 2002a, b). […]
Corticosterone and LPS were measured in plasma by means of the use of radioimmunoassay (R.I.A.) kits available on the market (Coat-A-Count®, Siemens, La., USA) or colorimetric enzymatic reaction (HyCult Biotech, Uden, Netherlands), respectively.

CCCCCCCC/C=C\CCCCCCCC(=O)NCCO [OEA, oleoylethanolamide]
Ethanol intoxication-induced increase in HMGB1 (ELISA) ([1]; 2-4 h after last ethanol, OEA 5 mg/kg i.p. (initial 10 mg/kg) 10 min before each ethanol): prevented | HMGB1 n/c ratio (nuclear/cytoplasmic, Western blot) ([1]; OEA + ethanol, ethanol alone 1.21, control 1.3): 1.48 | Plasma LPS levels, increase with respect to the control [2]: 44%
